Earlier results, collected in publication PMC7395068, “The evolution of strategies to minimise the risk of human drug-induced liver injury (DILI) in drug discovery and development” (Archives of Toxicology, 2020).
Where two headings read alike, the source gives them in different places.

What was measured:
[1] = cited from earlier work
[2] = tested on: HepG2 cells; details: In vitro Assay; ref O'Brien 2006; cited from earlier work
[3] = tested on: HepG2 cells; details: In vitro Assay; ref Persson 2013; cited from earlier work
[4] = tested on: THLE or HepG2 cells, isolated mitochondria, BSEP; details: cited from earlier work
[5] = cited from earlier work; remark: listed apart in the source
[6] = cited from earlier work; remark: listed apart in the source
[7] = tested on: human hepatocytes; details: In vitro Assay; ref Xu 2008; cited from earlier work
[8] = tested on: THLE-Null and THLE-3A4 cells; details: In vitro Assay; ref Gustafsson 2014; cited from earlier work
[9] = tested on: isolated mouse liver mitochondria; details: In vitro Assay; ref Porceddu 2012; cited from earlier work
[10] = tested on: rBsep; details: In vitro Assay; ref Dawson 2012; cited from earlier work
[11] = tested on: HepG2 cells, primary human hepatocytes; details: cited from earlier work

| Molecule | DILI +VE (5-8), DILI -VE (-4) ([1]; in vivo) | DILI severity category ([1]; in vivo) | DILI Score (FDA) (1-8) ([6]; in vivo) | DILI +VE (5-8), DILI -VE (-4) ([1]; ref Chen 2016) | DILI severity category ([1]; ref Chen 2016) | Partition Hybrid HRM Score ([4]; In vitro Assay, ref Aleo 2019) | Ro2 Hybrid HRM Score ([4]; In vitro Assay, ref Aleo 2019) | In vivo DILI ([5]; ref Aleo 2019) | DILI Score (FDA) (1-8) ([6]; ref Chen 2011) | also measured |
| --- | --- | --- | --- | --- | --- | --- | --- | --- | --- | --- |
| CN(C)c1ccc(O)c2c1C[C@H]1C[C@H]3[C@H](N(C)C)C(O)=C(C(N)=O)C(=O)[C@@]3(O)C(O)=C1C2=O [minocycline] | +VE | vMost-DILI-Concern | 2 | – | – | – | – | – | – | Structural based (HCI) [2]: +VE; Cluser analysis [3]: -VE; Structural based (HCI) [3]: -VE; Ro2 Hybrid HRM Score [4]: +VE; In vivo DILI ([5]; in vivo): +VE |
| O=C1CC[C@@]2(O)[C@H]3Cc4ccc(O)c5c4[C@@]2(CCN3CC2CC2)[C@H]1O5 [naltrexone] | -VE | Ambiguous DILI-concern | 3 | – | – | – | – | – | – | Structural based (HCI) [7]: -VE; In vivo DILI ([5]; in vivo): +VE; THLE-Null [8]: -VE; THLE-Null/3A4 [8]: -VE |
| CNC(=C[N+](=O)[O-])NCCSCc1csc(CN(C)C)n1 [nizatidine] | – | – | – | +VE | vLess-DILI-Concern | -VE | -VE | +VE | 5 | Structural based (HCI) [2]: +VE (lowest HCI endpoint IC50 (or in the absence of dose–response < 100 µM) < 30 × total human plasma exposure levels (Cmax.tot)); In vivo DILI ([5]; ref O'Brien 2006): +VE |
| CNC(=C[N+](=O)[O-])NCCSCc1ccc(CN(C)C)o1 [ranitidine] | – | – | – | +VE | vLess-DILI-Concern | -VE | -VE | +VE | 5 | In vivo DILI ([5]; […]): +VE; In vivo DILI ([5]; ref Dawson 2012): +VE; In vivo DILI ([5]; ref Garside 2014): +VE; In vivo DILI ([5]; ref Gustafsson 2014): +VE; In vivo DILI ([5]; ref Porceddu 2012): +VE; In vivo DILI ([5]; ref Xu 2008): -VE; THLE-Null [8]: -VE; in vitro data EC2<=1x Cmax [9]: +VE; in vitro data EC20<=2uM [9]: -VE; Inhibition of rBsep cutoff<1& cmax u>.2 [10]: -VE; Inhibition of rBsep cutoff<3 [10]: -VE |
| CO[C@H]1/C=C/O[C@@]2(C)Oc3c(C)c(O)c4c(O)c(c(/C=N/N5CCN(C)CC5)c(O)c4c3C2=O)NC(=O)/C(C)=C\C=C\[C@H](C)[C@H](O)[C@@H](C)[C@@H](O)[C@@H](C)[C@H](OC(C)=O)[C@@H]1C [rifampin] | – | – | – | +VE | vMost-DILI-Concern | +VE | +VE | +VE | 8 | In vivo DILI ([5]; […]): +VE; In vivo DILI ([5]; ref Garside 2014): +VE; Cluster 1-6 +VE Assay ([11]; In vitro Assay, ref Garside 2014): -VE |
| C=CC[C@@H]1/C=C(\C)C[C@H](C)C[C@H](OC)[C@H]2O[C@@](O)(C(=O)C(=O)N3CCCC[C@H]3C(=O)O[C@H](/C(C)=C/[C@@H]3CC[C@@H](O)[C@H](OC)C3)[C@H](C)[C@@H](O)CC1=O)[C@H](C)C[C@@H]2OC [tacrolimus] | – | – | – | +VE | vLess-DILI-Concern | -VE | -VE | +VE | 5 | – |
| CCC[C@@]1(CCc2ccccc2)CC(O)=C([C@H](CC)c2cccc(NS(=O)(=O)c3ccc(C(F)(F)F)cn3)c2)C(=O)O1 [tipranavir] | – | – | – | +VE | vMost-DILI-Concern | +VE | +VE | +VE | 8 | – |
| COc1ccc(C(CN(C)C)C2(O)CCCCC2)cc1 (stereo not shown) [venlafaxine] | +VE | vLess-DILI-Concern | 7 | – | – | – | – | – | – | Partition Hybrid HRM Score [4]: +VE; Ro2 Hybrid HRM Score [4]: +VE; Cluster 1-6 +VE Assay [11]: -VE |
| carboplatin | – | – | – | +VE | vLess-DILI-Concern | -VE | -VE | +VE | 3 | – |
